Reference: US4206215A, “Antimicrobial bis-[4-(substituted-amino)-1-pyridinium]alkanes” (Sterling Drug Inc., priority 1977, dated 1980)

Key:
S. pyogen. C203 = assay: In vitro antibacterial activity, MIC (modified Autotiter method); type: cell-based, Streptococcus pyogenes; conditions: Streptococcus pyogenes, 20 h, 18-20 hours at 37° C.; read-out: MIC S. pyogen. C203
Protocol: (§1) The antibacterial and antifungal activity of representative examples of the compounds of Formula I was determined using a modification of the Autotiter method described by Goss, et al. Applied Microbiology 16 (9) 1,414-1,416 (1968) in which a 1,000 mcg./ml. solution of the test compound is prepared. To the first cup of the Autotray is added 0.1 ml. of the test solution. Activation of the Autotiter initiates a sequence of operations by which 0.05 ml. of the test compound solution is withdrawn from the cup by a Microtiter transfer loop and diluted in 0.05 ml. of sterile water. Following this operation, 0.05 ml. of inoculated double-strength semisynthetic medium (glucose) is added automatically to each cup. The overall operation results in final drug concentrations ranging from 500 to 0.06 mcg./ml. in twofold decrements. […] The compounds were thus tested as solutions against a variety of gram positive and gram negative bacteria including Staphylococcus aureus, Proteus mirabilis, Escherichia coli, Klebsiella pneumoniae, Pseudomonas aeruginosa, Streptococcus pyogenes, and against such fungi as Aspergillus niger, Candida albicans and Trichophyton mentagrophytes.

A. niger 16404 = assay: In vitro antifungal activity, MIC (modified Autotiter method); type: cell-based, Aspergillus niger; conditions: Aspergillus niger, 16404, 20 h, 18-20 hours at 37° C.; read-out: MIC A. niger 16404
Protocol: as §1

S. Aureus Smith = assay: In vitro antibacterial activity, MIC (modified Autotiter method); type: cell-based, Staphylococcus aureus; conditions: Staphylococcus aureus, 20 h, 18-20 hours at 37° C.; read-out: MIC S. Aureus Smith
Protocol: as §1

K. pneum. 39645 = assay: as above; type: cell-based, Klebsiella pneumoniae; conditions: Klebsiella pneumoniae, 20 h, 18-20 hours at 37° C.; read-out: MIC K. pneum. 39645
Protocol: as §1

T. menta. 9129 = assay: In vitro antifungal activity, MIC (modified Autotiter method); type: cell-based, Trichophyton mentagrophytes; conditions: Trichophyton mentagrophytes, 20 h, 18-20 hours at 37° C.; read-out: MIC T. menta. 9129
Protocol: as §1

Ps. aerug. MGH-2 = assay: In vitro antibacterial activity, MIC (modified Autotiter method); type: cell-based, Pseudomonas aeruginosa; conditions: Pseudomonas aeruginosa, 20 h, 18-20 hours at 37° C.; read-out: MIC Ps. aerug. MGH-2
Protocol: as §1

P. mirab. MGH-1 = assay: as above; type: cell-based, Proteus mirabilis; conditions: Proteus mirabilis, 20 h, 18-20 hours at 37° C.; read-out: MIC P. mirab. MGH-1
Protocol: as §1

E. coli 100/B22 = assay: as above; type: cell-based, Escherichia coli; conditions: Escherichia coli, 100/B22, 20 h, 18-20 hours at 37° C.; read-out: MIC E. coli 100/B22
Protocol: as §1

E. coli Vogel = assay: as above; type: cell-based, Escherichia coli; conditions: Escherichia coli, 20 h, 18-20 hours at 37° C.; read-out: MIC E. coli Vogel
Protocol: as §1

E. coli AB1932-1 = assay: as above; type: cell-based, Escherichia coli; conditions: Escherichia coli, AB19321, 20 h, 18-20 hours at 37° C.; read-out: MIC E. coli AB1932-1
Protocol: as §1

C. albicans Wisc. = assay: In vitro antifungal activity, MIC (modified Autotiter method); type: cell-based, Candida albicans; conditions: Candida albicans, 20 h, 18-20 hours at 37° C.; read-out: MIC C. albicans Wisc.
Protocol: as §1

C. albicans 10231 = assay: as above; type: cell-based, Candida albicans; conditions: Candida albicans, 10231, 20 h, 18-20 hours at 37° C.; read-out: MIC C. albicans 10231
Protocol: as §1

SMILES	MIC (S. pyogen. C203) [µg/mL]	MIC (A. niger 16404) [µg/mL]	MIC (S. Aureus Smith) [µg/mL]	MIC (K. pneum. 39645) [µg/mL]	MIC (T. menta. 9129) [µg/mL]	MIC (Ps. aerug. MGH-2) [µg/mL]	MIC (P. mirab. MGH-1) [µg/mL]	MIC (E. coli 100/B22) [µg/mL]	MIC (E. coli Vogel) [µg/mL]	MIC (E. coli AB1932-1) [µg/mL]	MIC (C. albicans Wisc.) [µg/mL]	MIC (C. albicans 10231) [µg/mL]
Fc1ccc(Nc2cc[n+](CCCCCC[n+]3ccc(Nc4ccc(F)cc4)cc3)cc2)cc1 [Example 83B, 1,6-bis-[4-(p-fluorophenylamino)-1-pyridinium]hexane dibromide]	7.8	31.3	15.6	> 125	31.3	> 62.5	> 125	15.6	31.3	15.6	31.3	31.3
CCCNc1cc[n+](CCCCCCCCCC[n+]2ccc(NCCC)cc2)cc1 [Example 30, 1,10-bis-[4-(propylamino)-1-pyridinium]decane dibromide]	3.9	31.3	1.95	> 62.5	1	> 62.5	> 250	> 62.5	> 62.5	> 62.5	7.8	15.6
CCCCCCCCCCNc1cc[n+](CCCCCCCCCCCC[n+]2ccc(NCCCCCCCCCC)cc2)cc1 [Example 69, 1,12-bis-[4-(decylamino)-1-pyridinium]dodecane dibromide]	3.9	15.6	1.95	31.3	3.9	15.6	15.6	15.6	7.8	31.3	15.6	15.6
Clc1ccc(Nc2cc[n+](CCCC[n+]3ccc(Nc4ccc(Cl)cc4)cc3)cc2)cc1 [Example 76C, 1,4-bis-[4-(p-chlorophenylamino)-1-pyridinium]butane dimethanesulfonate]	1.95	> 250	7.8	> 250	62.5	> 125	> 250	15.6	15.6	7.8	12.5	125
CCCCCCCCNc1cc[n+](CCCCCCC[n+]2ccc(NCCCCCCCC)cc2)cc1 [Example 43, 1,7-bis-[4-(octylamino)-1-pyridinium]heptane dibromide]	1	7.8	0.5	1	1	31.3	7.8	1	1.95	1	1.95	1.95
CCCCCCCCCCCCNc1cc[n+](CCCCCC[n+]2ccc(NCCCCCCCCCCCC)cc2)cc1 [Example 70, 1,6-bis-[4-(dodecylamino)-1-pyridinium]hexane dibromide]	7.8	62.5	7.8	> 62.5	7.8	> 62.5	> 62.5	62.5	31.3	> 62.5	31.3	15.6
CCCCCCCNc1cc[n+](CCCC[n+]2ccc(NCCCCCCC)cc2)cc1 [Example 20, 1,4-bis-[4-(heptylamino)-1-pyridinium]butane dibromide]	0.49	15.6	0.98	> 125	3.9	> 250	> 250	15.6	31.3	7.8	15.6	15.6
CCCCCCCCNc1cc[n+](CCCCCCCCCCCC[n+]2ccc(NCCCCCCCC)cc2)cc1 [Example 45, 1,12-bis-[4-(octylamino)-1-pyridinium]dodecane dibromide]	1	7.8	0.5	1	1	1.95	1.95	1.95	1.95	1.95	3.9	1
Clc1ccc(Nc2cc[n+](CCCCC[n+]3ccc(Nc4ccc(Cl)cc4)cc3)cc2)cc1 [Example 80, 1,5-bis-[4-(p-chlorophenylamino)-1-pyridinium]pentane dibromide]	1.95	62.5	7.8	> 125	15.6	> 125	> 125	125	125	31.3	62.5	62.5
CCCCCCCCCCCCNc1cc[n+](CCCCCCCC[n+]2ccc(NCCCCCCCCCCCC)cc2)cc1 [Example 72, 1,8-bis-[4-(dodecylamino)-1-pyridinium]octane dibromide]	15.6	> 62.5	7.8	> 62.5	7.8	> 62.5	62.5	> 62.5	31.3	62.5	31.3	31.3
CCCCCCCCCNc1cc[n+](CCCCCCCCCCCC[n+]2ccc(NCCCCCCCCC)cc2)cc1 [Example 52, 1,12-bis-[4-(nonylamino)1-pyridinium]dodecane dibromide]	1.95	15.6	1.95	3.9	1.95	3.9	3.9	3.9	3.9	7.8	7.8	7.8
Cc1cc(N)cc[n+]1CCCCCCCCC[n+]1ccc(N)cc1C [IX, 1,9-bis-(4-amino-2-methyl-1-pyridinium)nonane dibromide, reference compound]	3.9	31.3	3.9	250	7.8	> 500	> 500	–	31.3	–	–	31.3
